Test results from patent publication US20240287080A1 (IDEAYA Biosciences Inc., priority 2021, published 2024).

Target: T1, Pol theta (1-899) (Homo sapiens, UniProt O75417)
T1 construct: Pol theta (1-899) (5 nM) in assay buffer
Assay: Pol theta ATPase activity, NADH oxidation-coupled enzymatic assay (ATPase NADH coupling: Standard Screening: hPolQ)
Assay type: biochemical
Settings: Pol theta (1-899) 5 nM, NADH oxidation-coupled ATPase assay; compounds of Table 3
Method in brief: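 NADH-coupled ATPase readout: 5 nM Pol theta (1-899) preincubated 15 min with 10-point compound series in Tris pH 7.80, KCl, MgCl2, DTT, BSA, Tween, glycerol, then 100 μM ATP, 300 nM 50-mer poly-dT ssDNA, NADH, PEP, LDH and PK added (stock levels). A340 followed 60 min; slopes fit four-parameter for IC50.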

T1 sequence (O75417 1-899): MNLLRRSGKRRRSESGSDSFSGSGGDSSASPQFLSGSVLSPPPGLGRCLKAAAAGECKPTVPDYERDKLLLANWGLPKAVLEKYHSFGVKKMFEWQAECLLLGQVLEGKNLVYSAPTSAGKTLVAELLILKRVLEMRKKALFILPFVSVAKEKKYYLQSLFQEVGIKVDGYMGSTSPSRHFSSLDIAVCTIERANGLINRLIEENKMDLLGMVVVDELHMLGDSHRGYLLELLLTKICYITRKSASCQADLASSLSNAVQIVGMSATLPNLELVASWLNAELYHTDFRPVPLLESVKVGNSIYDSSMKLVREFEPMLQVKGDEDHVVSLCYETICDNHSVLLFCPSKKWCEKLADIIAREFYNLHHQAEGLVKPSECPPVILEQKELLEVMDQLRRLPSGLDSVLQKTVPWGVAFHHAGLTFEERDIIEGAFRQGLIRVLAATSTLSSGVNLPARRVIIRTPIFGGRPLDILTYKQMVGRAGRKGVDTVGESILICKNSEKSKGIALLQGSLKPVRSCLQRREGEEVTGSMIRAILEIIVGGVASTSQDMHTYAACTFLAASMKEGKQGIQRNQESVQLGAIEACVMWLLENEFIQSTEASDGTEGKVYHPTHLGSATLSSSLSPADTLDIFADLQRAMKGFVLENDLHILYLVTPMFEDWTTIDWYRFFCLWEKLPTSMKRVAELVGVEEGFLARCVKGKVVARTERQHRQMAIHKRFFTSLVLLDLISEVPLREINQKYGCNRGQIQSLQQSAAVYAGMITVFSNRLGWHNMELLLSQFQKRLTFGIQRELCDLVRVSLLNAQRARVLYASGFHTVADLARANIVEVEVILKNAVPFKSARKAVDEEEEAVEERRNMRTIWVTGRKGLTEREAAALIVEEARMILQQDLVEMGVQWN

IC50 | Structure (SMILES)
1000 to 10000 nM | COc1nnc(NC(=O)c2cnc(C)cc2-c2cccc(OCC#N)c2)s1 [Example 466, 4-[3-(cyanomethoxy)phenyl]-N-(5-methoxy-1,3,4-thiadiazol-2-yl)-6-methylpyridine-3-carboxamide]
≤ 200 nM | COc1cnc(Cl)cc1-c1cc(C)ncc1C(=O)Nc1nnc(O[C@@H]2CO[C@H]3OCC[C@H]32)s1 (single isomer, unassigned) [Example 305]
1000 to 10000 nM | COc1nnc(NC(=O)c2cnc(C)cc2-c2cccc(C(=O)O)c2)s1 [Example 326, 3-(5-((5-methoxy-1,3,4-thiadiazol-2-yl)carbamoyl)-2-methylpyridin-4-yl)benzoic acid]
≤ 200 nM | COc1nnc(NC(=O)c2ccc(N)cc2-c2cc(Cl)ncc2OC)s1 [Example 286, 4-amino-2-(2-chloro-5-methoxypyridin-4-yl)-N-(5-methoxy-1,3,4-thiadiazol-2-yl)benzamide]
1000 to 10000 nM | COc1nnc(NC(=O)c2cnc(C)cc2-c2cnc(C(F)(F)F)cc2C)s1 [Example 424, N-(5-methoxy-1,3,4-thiadiazol-2-yl)-4,6′-dimethyl-6-(trifluoromethyl)-[3,4′-bipyridine]-3′-carboxamide]
500 to 1000 nM | COc1nnc(NC(=O)c2cnc(C)cc2-c2ccc3ccccc3c2)s1 [Example 363, N-(5-methoxy-1,3,4-thiadiazol-2-yl)-6-methyl-4-(naphthalen-2-yl)pyridine-3-carboxamide]
200 to 500 nM | COc1nnc(NC(=O)c2cnc(C)cc2-c2cccc3cnccc23)s1 [Example 372, 4-(isoquinolin-5-yl)-N-(5-methoxy-1,3,4-thiadiazol-2-yl)-6-methylpyridine-3-carboxamide]
≤ 200 nM | COc1nnc(NC(=O)c2cnc(C)cc2-c2cc(Cl)c([S+](C)[O-])cc2OC)s1 (single isomer, unassigned) [Example 277]
500 to 1000 nM | COc1nnc(NC(=O)c2cnc(C)cc2-c2cccc(S(C)(=O)=O)c2)s1 [Example 397, 4-(3-methanesulfonylphenyl)-N-(5-methoxy-1,3,4-thiadiazol-2-yl)-6-methylpyridine-3-carboxamide]
1000 to 10000 nM | COc1nnc(NC(=O)c2cnc(C)cc2-c2cccc(N3CCCCC3)c2)s1 [Example 478, N-(5-methoxy-1,3,4-thiadiazol-2-yl)-6-methyl-4-[3-(piperidin-1-yl)phenyl]pyridine-3-carboxamide]
≤ 200 nM | COc1cnc(C)cc1-c1cc(C)ncc1C(=O)Nc1nnc(OC2COCC2NCC2CC2)s1 (centres unmarked) [Example 249, N-(5-((4-((cyclopropylmethyl)amino)tetrahydrofuran-3-yl)oxy)-1,3,4-thiadiazol-2-yl)-5′-methoxy-2′,6-dimethyl-[4,4′-bipyridine]-3-carboxamide]
1000 to 10000 nM | COc1nnc(NC(=O)c2cnc(C)cc2-c2ccc(C#N)cc2)s1 [Example 365, 4-(4-cyanophenyl)-N-(5-methoxy-1,3,4-thiadiazol-2-yl)-6-methylpyridine-3-carboxamide]
1000 to 10000 nM | COc1nnc(NC(=O)c2cnc(C)cc2-c2cnc(C#N)nc2)s1 [Example 444, 4-(2-cyanopyrimidin-5-yl)-N-(5-methoxy-1,3,4-thiadiazol-2-yl)-6-methylnicotinamide]
1000 to 10000 nM | CCCCc1ccc(-c2cc(C)ncc2C(=O)Nc2nnc(OC)s2)cc1 [Example 484, 4-(4-butylphenyl)-N-(5-methoxy-1,3,4-thiadiazol-2-yl)-6-methylpyridine-3-carboxamide]
1000 to 10000 nM | COc1nnc(NC(=O)c2cnc(C)cc2-c2ccc(S(C)(=O)=O)cc2)s1 [Example 371, N-(5-methoxy-1,3,4-thiadiazol-2-yl)-6-methyl-4-(4-(methylsulfonyl)phenyl)nicotinamide]
1000 to 10000 nM | COc1nnc(NC(=O)c2cnc(C)cc2-c2ccc(F)c(OC)c2)s1 [Example 330, 4-(4-fluoro-3-methoxyphenyl)-N-(5-methoxy-1,3,4-thiadiazol-2-yl)-6-methylpyridine-3-carboxamide]
1000 to 10000 nM | COc1nnc(NC(=O)c2cnc(C)cc2-c2cc(C#N)cc(OC(F)(F)F)c2)s1 [Example 327, 4-[3-cyano-5-(trifluoromethoxy)phenyl]-N-(5-methoxy-1,3,4-thiadiazol-2-yl)-6-methylpyridine-3-carboxamide]
≤ 200 nM | COc1nnc(NC(=O)c2cnc(C)cc2-c2cccc(C(F)(F)F)c2)s1 [Example 359, N-(5-methoxy-1,3,4-thiadiazol-2-yl)-6-methyl-4-[3-(trifluoromethyl)phenyl]pyridine-3-carboxamide]
200 to 500 nM | COc1nnc(NC(=O)c2cnc(C)cc2-c2cccc3sccc23)s1 [Example 423, 4-(1-benzothiophen-4-yl)-N-(5-methoxy-1,3,4-thiadiazol-2-yl)-6-methylpyridine-3-carboxamide]

Same assay, conditions: Table 4; Pol theta (1-899) 5 nM, ATP, dT50 ssDNA

IC50 | Structure (SMILES)
200 to 500 nM | COc1cnc(Cl)cc1-c1cc(C)ncc1C(=O)Nc1nnc(O)s1 [Example 31, 2′-chloro-N-(5-hydroxy-1,3,4-thiadiazol-2-yl)-5′-methoxy-6-methyl-(4,4′-bipyridine)-3-carboxamide]
≤ 200 nM | COc1nnc(NC(=O)c2cnc(C)cc2-c2cc(C(F)F)ncc2OC)s1 [Example 70, 2′-(difluoromethyl)-5′-methoxy-N-(5-methoxy-1,3,4-thiadiazol-2-yl)-6-methyl-(4,4′-bipyridine)-3-carboxamide]
1000 to 10000 nM | COc1cccc(F)c1-c1cc(C)ncc1C(=O)Nc1nnc(O)s1 [Example 3, 4-(2-fluoro-6-methoxyphenyl)-N-(5-hydroxy-1,3,4-thiadiazol-2-yl)-6-methylnicotinamide]

Structure (SMILES) | IC50
COc1cnc(Cl)cc1-c1cc(C)ncc1C(=O)Nc1nnc(O[C@H]2C[C@@H](O)C2)s1 [Example 15, 2′-chloro-N-(5-((1s,3s)-3-hydroxycyclobutoxy)-1,3,4-thiadiazol-2-yl)-5′-methoxy-6-methyl-(4,4′-bipyridine)-3-carboxamide] | ≤ 200 nM

Same assay, conditions: Table 5; Pol theta (1-899) 5 nM, ATP, dT50 ssDNA

IC50 | Structure (SMILES)
≤ 200 nM | COc1cnc(Cl)cc1-c1cc(C)ncc1C(=O)Nc1nnc(O[C@H]2CC[C@H](OC)C2)s1 (racemic) [Example 149, rac-2′-chloro-5′-methoxy-N-(5-(((1R,3R)-3-methoxycyclopentyl)oxy)-1,3,4-thiadiazol-2-yl)-6-methyl-(4,4′-bipyridine)-3-carboxamide]
≤ 200 nM | COc1cnc(Cl)cc1-c1cc(C)ncc1C(=O)Nc1nnc(O[C@H]2CCC[C@H](O)C2)s1 (single isomer, unassigned) [Example 161]
200 to 500 nM | COc1cnc(Cl)cc1-c1cc(C)ncc1C(=O)Nc1nnc(O[C@H]2CCO[C@H]2C)s1 (racemic) [Example 92, rac-2′-Chloro-5′-methoxy-6-methyl-N-(5-(((2R,3R)-2-methyltetrahydrofuran-3-yl)oxy)-1,3,4-thiadiazol-2-yl)-(4,4′-bipyridine)-3-carboxamide]
≤ 200 nM | COc1cnc(C)c(F)c1-c1cc(C)ncc1C(=O)Nc1nnc(O[C@H]2C[C@@H]3CC[C@H]2O3)s1 (single isomer, unassigned) [Example 219]
≤ 200 nM | COc1cnc(Cl)cc1-c1cc(C)ncc1C(=O)Nc1nnc(O[C@H]2CC[C@H]([C@H](C)O)CC2)s1 (single isomer, unassigned) [Example 200]

Same assay, conditions: Table 5; values given as bound; Pol theta (1-899) 5 nM, ATP, dT50 ssDNA

IC50 | Structure (SMILES)
> 10000 nM | COc1nnc(NC(=O)c2cnc(C)cc2-c2cccn3ncnc23)s1 [Example 123, 4-((1,2,4)triazolo(1,5-a)pyridin-8-yl)-N-(5-methoxy-1,3,4-thiadiazol-2-yl)-6-methylnicotinamide]
